Experimental data: patent US12122783B2, “Stable salt of 5,10-methylene-(6R)-tetrahydrofolic acid” (MERCK & CIE, priority 2013, dated 2024)
Where a name gives a salt, the structure may show the parent alone.

Assays:
[1] = Long-term stability of hemisulfate salt stored in air, content by HPLC; type: physicochemical; details: for (6R)-5,10-CH2-THF hemisulfate remaining: solid, air, 25 °C/60% relative humidity
Method: (§1) In order to determine the long-term stabilities of (6R)-5,10-CH2-THF hemisulfate salt, the compounds of the invention were stored in air at 25° C. and at 60% relative humidity. The content of (6R)-5,10-CH2-THF hemisulfate salt remaining was measured by HPLC at periodic intervals and is given by comparison with the initial value (% rel.).

dogs = details: dog, in vivo, 50 mg/kg/day
[2] = Stability at high temperature/low pressure (XRPD); type: physicochemical; details: drying chamber 65 °C, 8 mbar, 21 h
Method: (§2) Powder X-Ray Diffraction (Bruker D8 Advance): Copper Kα radiation, 40 kV/40 mA, LynxEye detector, Bragg-Brentano reflection geometry, 0.02° 2θ step size, 37 s step time, 2.5-50° 2θ range. Powder samples were measured in 0.1-mm or 0.5-mm deep silicon single-crystal sample holders. No special treatment was used in preparing the samples other than the application of slight pressure to get a flat surface. An ambient air atmosphere was used for all measurements, and the samples were rotated during the measurement. Absent any information to the contrary X-Ray Diffraction data is shown as reflection data.
(§3) (6R)-5,10-CH2-THF hemisulfate salt (3.01 g) was dispersed in 100 ml 85% EtOH at room temperature and stirred for 5 h, then filtered and dried at 30° C. and 8 mbar for 12 hours (over night).
(6R)-5,10-CH2-THF hemisulfate salt (2.17 g) was placed in a drying chamber at 65° C. and 8 mbar for 21 h.

rats = details: rat, in vivo, 100 mg/kg/day
[3] = Stability in 85% ethanol at room temperature (XRPD); type: physicochemical; details: 85% EtOH, stirred 5 h, filtered and dried
Method: as §2
• (b) Stability in 85% ethanol at room temperature
as §3

[4] = TG-FTIR thermogram under N2 flow; type: physicochemical; details: 10 K min^−1
Method: TG-FTIR (Netzsch Thermo-Microbalance TG 209 with Bruker FT-IR Spectrometer IFS 28): Al crucible (with microhole); N2 atmosphere; 10 K min^−1 heating rate; 25° C. to 300° C. range.
• (a) The FT Raman spectrum of (6R)-5,10-CH2-THF hemisulfate salt, recorded using a nominal laser power level of 300 mW and 64 scans is shown in FIG. 1. • (b) The corresponding powder X-ray diffractogram, recorded in transmission mode, is shown in FIG. 2. • (c) The TG-FTIR thermogram of (6R)-5,10-CH2-THF hemisulfate salt is shown in FIG. 3. It was carried out under N2 flow (to avoid oxidative degradation). […] Prior to the first heating scan, the sample was equilibrated for three minutes under gaseous nitrogen flow and lost 0.6 wt.-% of its mass during that time. This is consistent with the water content observed in the TG-FTIR thermogram (see FIG. 3) and confirms that this water is loosely bound. The sample was subsequently heated in a closed gold crucible to 254° C. at 10 K min^−1, quench cooled to −50° C., and heated a second time at 10 K min^−1. […] No other thermal events were observed up to 250° C. • (e) The IR spectrum was recorded in a pressed KBr pellet and the characteristic absorption bands are shown in Table 3. • (f) The ^1H NMR spectrum of (6R)-5,10-CH2-THF hemisulfate salt was recorded in DMSO-d6 and the chemical shifts (d) in ppm are shown in Table 8.

[5] = Phase I/II study ISO-CC-002, pharmacokinetics/pharmacodynamics versus Levoleucovorin in tumor tissue, adjacent mucosa and blood plasma; type: in vivo; details: colon cancer patients
Method: (b) In a single-blinded, randomized phase I/II study (ISO-CC-002) performed on 32 patients diagnosed with colon cancer the pharmacokinetic and pharmacodynamic properties of (6R)-5,10-CH2-THF hemisulfate compared to Levoleucovorin in tumor tissue, adjacent mucosa and blood plasma were investigated. The study was performed at the Sahlgrenska University Hospital in Göteborg, Sweden. […] The concentrations of methylenetetrahydrofolate and tetrahydrofolate in both tumor and adjacent mucosa were also much higher after administration of (6R)-5,10-CH2-THF hemisulfate than those obtained after administration of Levoleucovorin.

[6] = Long-term stability of lyophilisates stored in air, content by HPLC; type: physicochemical; details: room temperature, pharmaceutical composition such as a lyophilisate
Method: as §1, with “salt as pharmaceutical compositions, more specifically as lyophilisates (as prepared according to e.g. Example 5), lyophilisates” for “salt, the compounds of the invention”

[7] = Suspension equilibration stability in solvents and mixtures; type: physicochemical
Text: • (a) Suspension equilibration of (6R)-5,10-CH2-THF hemisulfate salt as starting material at temperatures other than room temperature in a variety of solvents and mixture are summarized in Table 10: […]

[8] = Comparative long-term stability of sulfate salt, content by HPLC; type: physicochemical
Method: In order to compare the long-term stabilities of (6R)-5,10-CH2-THF hemisulfate salt, the compounds of the invention, to the long-term stabilities of (6R)-5,10-CH2-THF sulfate salt prepared according to EP 0 537 492 B1, stability data for (6R)-5,10-CH2-THF sulfate salt has been generated at various temperatures and humidities. • (a) Stability of (6R)-5,10-CH2-THF sulfate
(6R)-5,10-CH2-THF sulfate salt was prepared according to literature procedures (EP 0 537 492 B1) and stored for 15 month at −20° C. Subsequently, samples of the product were stored at 5° C. resp. at 25° C. and 60% relative humidity resp. at 40° C. and 75% relative humidity. The content of (6R)-5,10-CH2-THF sulfate salt remaining in the sample was measured by HPLC at periodic intervals. The content of (6R)-5,10-CH2-THF sulfate was compared to the initial value at the time of preparation (% rel.).

patients = experiment: Clinical safety data in patients; type: in vivo; details: doses of up to 200 mg/m^2

## Nc1nc2c(c(=O)[nH]1)N1CN(c3ccc(C(=O)N[C@@H](CCC(=O)O)C(=O)O)cc3)C[C@H]1CN2 [(6R)-5,10-CH2-THF hemisulfate salt, 5,10-methylene-(6R)-tetrahydrofolic acid]
[1]; room temperature, pure compound
  Stability over a long period of time (conclusion from Table 11): highly stable
[1]; 0 months
  (6R)-5,10-CH2-THF hemisulfate remaining: 100.0 % rel.
[1]; 3 months, listed as (6R)-5,10-CH2-THF hemisulfate (batch 1)
  (6R)-5,10-CH2-THF hemisulfate remaining: 99.7 % rel.
[1]; 3 months, listed as (6R)-5,10-CH2-THF hemisulfate (batch 2)
  (6R)-5,10-CH2-THF hemisulfate remaining: 99.9 % rel.
[1]; 3 months, listed as (6R)-5,10-CH2-THF hemisulfate (batch 3)
  (6R)-5,10-CH2-THF hemisulfate remaining: 99.5 % rel.
[1]; 6 months
  (6R)-5,10-CH2-THF hemisulfate remaining: 99.5 % rel.
[1]; 6 months, listed as (6R)-5,10-CH2-THF hemisulfate (batch 2)
  (6R)-5,10-CH2-THF hemisulfate remaining: 99.9 % rel.
[1]; 9 months, listed as (6R)-5,10-CH2-THF hemisulfate (batch 1)
  (6R)-5,10-CH2-THF hemisulfate remaining: 99.6 % rel.
[1]; 9 months, listed as (6R)-5,10-CH2-THF hemisulfate (batch 2)
  (6R)-5,10-CH2-THF hemisulfate remaining: 100.0 % rel.
[1]; 9 months, listed as (6R)-5,10-CH2-THF hemisulfate (batch 3)
  (6R)-5,10-CH2-THF hemisulfate remaining: 99.4 % rel.
[1]; 12 months, listed as (6R)-5,10-CH2-THF hemisulfate (batch 1)
  (6R)-5,10-CH2-THF hemisulfate remaining: 99.2 % rel.
[1]; 12 months, listed as (6R)-5,10-CH2-THF hemisulfate (batch 2)
  (6R)-5,10-CH2-THF hemisulfate remaining: 99.7 % rel.
[1]; 12 months, listed as (6R)-5,10-CH2-THF hemisulfate (batch 3)
  (6R)-5,10-CH2-THF hemisulfate remaining: 99.1 % rel.
[1]; 18 months, listed as (6R)-5,10-CH2-THF hemisulfate (batch 1)
  (6R)-5,10-CH2-THF hemisulfate remaining: 99.2 % rel.
[1]; 18 months, listed as (6R)-5,10-CH2-THF hemisulfate (batch 2)
  (6R)-5,10-CH2-THF hemisulfate remaining: 99.4 % rel.
[1]; 18 months, listed as (6R)-5,10-CH2-THF hemisulfate (batch 3)
  (6R)-5,10-CH2-THF hemisulfate remaining: 99.0 % rel.
[1]; 24 months, listed as (6R)-5,10-CH2-THF hemisulfate (batch 1)
  (6R)-5,10-CH2-THF hemisulfate remaining: 99.4 % rel.
[1]; 24 months, listed as (6R)-5,10-CH2-THF hemisulfate (batch 2)
  (6R)-5,10-CH2-THF hemisulfate remaining: 99.4 % rel.
[1]; 24 months, listed as (6R)-5,10-CH2-THF hemisulfate (batch 3)
  (6R)-5,10-CH2-THF hemisulfate remaining: 99.0 % rel.
[1]; 36 months, listed as (6R)-5,10-CH2-THF hemisulfate (batch 1)
  (6R)-5,10-CH2-THF hemisulfate remaining: 98.5 % rel.
[1]; 36 months, listed as (6R)-5,10-CH2-THF hemisulfate (batch 2)
  (6R)-5,10-CH2-THF hemisulfate remaining: 99.0 % rel.
dogs
  Safety at highest dose-level administered: safe
[2]
  X-ray pattern distinctive for crystal form Type 1: remained unchanged
rats
  Safety at highest dose-level administered: safe
[3]
  X-ray pattern distinctive for crystal form Type 1: remained unchanged
[4]
  Decomposition temperature (TG-FTIR): above 210 °C
[5]; blood plasma
  Exposure of methylenetetrahydrofolate compared to Levoleucovorin: substantially greater
  Peak plasma concentrations of methylenetetrahydrofolate compared to Levoleucovorin: substantially greater
[5]; both tumor and adjacent mucosa
  Concentration of methylenetetrahydrofolate compared to Levoleucovorin: much higher
  Concentration of tetrahydrofolate compared to Levoleucovorin: much higher
[6]
  Stability over a long period of time (conclusion from Table 12): highly stable
[7]; 2-PrOH with ~2 mM L-ascorbic acid, 40 °C, 3 d
  Observation (suspension equilibration): No change
[7]; AcOH saturated with L-ascorbic acid, 50 °C, 1 d
  Observation (suspension equilibration): No change
[7]; AcOH saturated with L-ascorbic acid, 50 °C, 5 d
  Observation (suspension equilibration): No change
[7]; H2O, 5 °C, 6 d
  Observation (suspension equilibration): No change
[7]; MeCN saturated with L-ascorbic acid, 50 °C, 5 d
  Observation (suspension equilibration): No change
[7]; MeOH/formic acid 1:1, 50 °C, 2 h
  Observation (suspension equilibration): No change
[7]; PEG4500/EtOH 1:9 saturated with L-ascorbic acid, 50 °C, 7 d
  Observation (suspension equilibration): No change
[7]; THF with ~2 mM L-ascorbic acid, 40 °C, 3 d
  Observation (suspension equilibration): No change
[7]; formic acid/THF 1:3, 10-20 °C, 6 d
  Observation (suspension equilibration): No change
[8]; comparison of Tables 13 and 14 with Example 3
  Stability over a long period of time compared to (6R)-5,10-CH2-THF sulfate: much more stable
patients
  Safety for patients: safe

## Nc1nc2c(c(=O)[nH]1)N1CN(c3ccc(C(=O)N[C@@H](CCC(=O)O)C(=O)O)cc3)C[C@H]1CN2 [(6R)-5,10-CH2-THF sulfate, 5,10-methylene-(6R)-tetrahydrofolic acid]
[8]; 5 °C, 0 months, after 15 months at −20 °C, relative to value at preparation
  (6R)-5,10-CH2-THF sulfate remaining: 98.7 % rel.
[8]; 5 °C, 6 months, after 15 months at −20 °C, relative to value at preparation
  (6R)-5,10-CH2-THF sulfate remaining: 97.3 % rel.
[8]; 25 °C/60% rh, 0 months, after 15 months at −20 °C, relative to value at preparation
  (6R)-5,10-CH2-THF sulfate remaining: 98.7 % rel.
[8]; 25 °C/60% rh, 6 months, after 15 months at −20 °C, relative to value at preparation
  (6R)-5,10-CH2-THF sulfate remaining: 95.5 % rel.
[8]; 40 °C/75% rh, 0 months, after 15 months at −20 °C, relative to value at preparation
  (6R)-5,10-CH2-THF sulfate remaining: 98.7 % rel.
[8]; 40 °C/75% rh, 6 months, after 15 months at −20 °C, relative to value at preparation
  (6R)-5,10-CH2-THF sulfate remaining: 95.0 % rel.
[8]; −20 °C, 0 months
  (6R)-5,10-CH2-THF sulfate remaining: 100.0 % rel.
[8]; −20 °C, 15 months
  (6R)-5,10-CH2-THF sulfate remaining: 98.7 % rel.
